Reference: paper PMC9724289 (The European Respiratory Journal, 2022)

What was measured:
[1] = molecular target: PDGFRβ (Rattus norvegicus, UniProt Q05030); assay: Imatinib in vivo pharmacodynamic profile; conditions: imatinib dose selected for the in vivo study, oral gavage
[2] = test system: rat SU5416/Hypoxia (SU5416/H) model of PAH; assay: SU5416/H model; format: in vivo; conditions: for circulating IL-10 / circulating plasma TNF-α / lung mRNA and protein levels of MCP-1: day 49, vs vehicle; for lung BMPR2: end of treatment, vs vehicle
[3] = test system: human pulmonary arterial smooth muscle cells (HPASMCs); assay: PDGF-BB-induced HPASMC proliferation assay; format: cell-based
[4] = test system: rat monocrotaline (MCT) model; conditions: cited from earlier work
[5] = molecular target: c-KIT (Homo sapiens, UniProt P10721); assay: cell-based
[6] = test system: MCP-1 secretion in CSF1R+ human macrophages; assay: MCP-1/CCL2 secretion in primary human macrophages; format: cell-based; conditions: 24-hour incubation
[7] = molecular target: CSF1R (Homo sapiens, UniProt P07333); assay: M-CSF-induced pCSF1R in primary human macrophages
[8] = test system: BMPR2; assay: Lung BMPR2 protein expression in healthy rats; format: in vivo, rat; conditions: inhaled, dose-dependent, over time (8, 16, 24 h post-dosing)
[9] = test system: rat SU5416/Hypoxia (SU5416/H) model of PAH; assay: SU5416/H model; format: in vivo; conditions: for RVSP end of study: 2 weeks
[10] = molecular target: c-KIT (Rattus norvegicus, UniProt F7EWK5); assay: Lung c-KIT phosphorylation after PDGF-BB and SCF challenge in healthy rats; format: in vivo; conditions: inhaled; co-administered intratracheal PDGF-BB and SCF
[11] = test system: rat monocrotaline pneumonectomy (MCTPN) model of PAH; assay: MCTPN model; format: in vivo
[12] = Inhaled seralutinib pharmacokinetics in healthy rats; conditions: male, Sprague Dawley, rat, lung homogenate and plasma
[13] = 4.6 mg·kg−1 twice daily, vs vehicle
[14] = 2.5 mg·kg−1 twice daily inhaled, 11 days
[15] = 2.5 mg·kg−1 twice daily, vs vehicle

CSF1R, sequence (P07333 20-972): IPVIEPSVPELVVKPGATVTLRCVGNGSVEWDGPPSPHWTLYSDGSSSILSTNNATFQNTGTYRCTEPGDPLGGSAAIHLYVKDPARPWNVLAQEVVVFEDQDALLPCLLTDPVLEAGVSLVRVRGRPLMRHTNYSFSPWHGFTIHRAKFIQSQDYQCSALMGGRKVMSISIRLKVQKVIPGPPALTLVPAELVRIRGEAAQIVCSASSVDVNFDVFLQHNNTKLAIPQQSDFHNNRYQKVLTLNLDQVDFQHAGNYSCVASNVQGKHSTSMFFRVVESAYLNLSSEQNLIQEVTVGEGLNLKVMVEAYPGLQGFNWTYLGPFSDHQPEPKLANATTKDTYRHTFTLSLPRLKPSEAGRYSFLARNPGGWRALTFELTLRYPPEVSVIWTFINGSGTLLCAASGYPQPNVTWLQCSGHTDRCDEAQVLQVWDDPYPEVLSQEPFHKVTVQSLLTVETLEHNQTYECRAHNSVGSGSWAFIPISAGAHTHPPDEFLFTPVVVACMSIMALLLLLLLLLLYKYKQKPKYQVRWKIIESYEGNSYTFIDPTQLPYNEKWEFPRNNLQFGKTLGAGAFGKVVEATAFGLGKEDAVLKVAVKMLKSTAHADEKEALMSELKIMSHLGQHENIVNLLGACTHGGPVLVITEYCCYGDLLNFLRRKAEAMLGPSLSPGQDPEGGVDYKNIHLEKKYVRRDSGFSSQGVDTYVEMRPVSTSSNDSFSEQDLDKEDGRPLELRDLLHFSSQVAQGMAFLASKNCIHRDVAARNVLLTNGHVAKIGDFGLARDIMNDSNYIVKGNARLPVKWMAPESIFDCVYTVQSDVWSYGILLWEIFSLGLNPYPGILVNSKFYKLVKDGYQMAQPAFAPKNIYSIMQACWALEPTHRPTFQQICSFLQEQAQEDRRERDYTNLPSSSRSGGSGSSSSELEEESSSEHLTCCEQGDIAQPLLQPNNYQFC
PDGFRβ, sequence (Q05030 32-1097): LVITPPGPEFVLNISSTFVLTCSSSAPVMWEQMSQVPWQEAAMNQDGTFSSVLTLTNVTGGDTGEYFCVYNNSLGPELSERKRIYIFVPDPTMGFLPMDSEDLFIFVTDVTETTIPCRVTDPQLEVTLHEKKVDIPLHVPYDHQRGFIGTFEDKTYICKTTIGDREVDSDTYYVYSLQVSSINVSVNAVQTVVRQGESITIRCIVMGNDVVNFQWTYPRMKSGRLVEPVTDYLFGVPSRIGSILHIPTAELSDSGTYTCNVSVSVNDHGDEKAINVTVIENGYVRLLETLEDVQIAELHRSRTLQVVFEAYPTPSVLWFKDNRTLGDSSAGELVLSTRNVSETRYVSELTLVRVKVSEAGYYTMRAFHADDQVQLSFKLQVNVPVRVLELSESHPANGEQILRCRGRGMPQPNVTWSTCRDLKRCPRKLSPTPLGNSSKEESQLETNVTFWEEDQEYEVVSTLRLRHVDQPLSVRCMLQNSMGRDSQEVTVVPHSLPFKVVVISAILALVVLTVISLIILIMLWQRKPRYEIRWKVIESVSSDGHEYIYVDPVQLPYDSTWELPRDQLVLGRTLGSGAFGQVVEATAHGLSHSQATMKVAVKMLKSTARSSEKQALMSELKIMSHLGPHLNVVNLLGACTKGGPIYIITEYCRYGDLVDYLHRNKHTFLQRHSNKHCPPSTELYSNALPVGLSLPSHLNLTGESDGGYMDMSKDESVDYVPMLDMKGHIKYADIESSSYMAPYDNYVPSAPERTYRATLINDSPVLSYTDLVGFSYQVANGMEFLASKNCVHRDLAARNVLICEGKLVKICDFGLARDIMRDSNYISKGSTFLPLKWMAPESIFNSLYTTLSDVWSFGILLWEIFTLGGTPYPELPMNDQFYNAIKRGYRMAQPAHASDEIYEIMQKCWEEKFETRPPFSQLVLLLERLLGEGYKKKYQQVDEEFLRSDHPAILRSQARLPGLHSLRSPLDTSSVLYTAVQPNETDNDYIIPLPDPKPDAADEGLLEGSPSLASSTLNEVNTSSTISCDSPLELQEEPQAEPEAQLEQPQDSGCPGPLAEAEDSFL
c-KIT (Rattus norvegicus, UniProt F7EWK5), sequence (F7EWK5 26-978): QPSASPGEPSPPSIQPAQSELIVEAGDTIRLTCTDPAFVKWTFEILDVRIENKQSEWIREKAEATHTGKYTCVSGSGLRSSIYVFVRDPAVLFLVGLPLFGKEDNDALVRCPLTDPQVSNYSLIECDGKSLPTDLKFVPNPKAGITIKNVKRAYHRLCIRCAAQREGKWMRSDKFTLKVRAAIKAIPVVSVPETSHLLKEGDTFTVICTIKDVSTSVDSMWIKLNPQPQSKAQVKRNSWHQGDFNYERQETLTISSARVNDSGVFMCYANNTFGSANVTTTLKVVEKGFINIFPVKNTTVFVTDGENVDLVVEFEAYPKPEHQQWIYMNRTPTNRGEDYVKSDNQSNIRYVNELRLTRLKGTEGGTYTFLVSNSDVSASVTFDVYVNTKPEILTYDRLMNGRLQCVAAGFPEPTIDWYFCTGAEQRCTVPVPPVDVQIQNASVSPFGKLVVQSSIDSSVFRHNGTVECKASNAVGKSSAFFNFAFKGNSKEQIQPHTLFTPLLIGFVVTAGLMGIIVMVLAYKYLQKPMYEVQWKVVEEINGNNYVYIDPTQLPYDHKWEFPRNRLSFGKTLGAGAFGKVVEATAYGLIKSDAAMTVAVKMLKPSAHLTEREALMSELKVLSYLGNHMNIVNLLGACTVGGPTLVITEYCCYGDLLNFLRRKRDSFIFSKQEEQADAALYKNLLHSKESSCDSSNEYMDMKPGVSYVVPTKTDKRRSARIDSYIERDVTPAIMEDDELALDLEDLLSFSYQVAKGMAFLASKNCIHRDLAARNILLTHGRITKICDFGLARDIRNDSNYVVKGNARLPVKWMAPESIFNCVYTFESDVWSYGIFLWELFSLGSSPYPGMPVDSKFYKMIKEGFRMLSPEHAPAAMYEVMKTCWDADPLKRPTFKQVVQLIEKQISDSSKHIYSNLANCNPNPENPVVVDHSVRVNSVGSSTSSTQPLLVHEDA
c-KIT (Homo sapiens, UniProt P10721), sequence (P10721 26-976): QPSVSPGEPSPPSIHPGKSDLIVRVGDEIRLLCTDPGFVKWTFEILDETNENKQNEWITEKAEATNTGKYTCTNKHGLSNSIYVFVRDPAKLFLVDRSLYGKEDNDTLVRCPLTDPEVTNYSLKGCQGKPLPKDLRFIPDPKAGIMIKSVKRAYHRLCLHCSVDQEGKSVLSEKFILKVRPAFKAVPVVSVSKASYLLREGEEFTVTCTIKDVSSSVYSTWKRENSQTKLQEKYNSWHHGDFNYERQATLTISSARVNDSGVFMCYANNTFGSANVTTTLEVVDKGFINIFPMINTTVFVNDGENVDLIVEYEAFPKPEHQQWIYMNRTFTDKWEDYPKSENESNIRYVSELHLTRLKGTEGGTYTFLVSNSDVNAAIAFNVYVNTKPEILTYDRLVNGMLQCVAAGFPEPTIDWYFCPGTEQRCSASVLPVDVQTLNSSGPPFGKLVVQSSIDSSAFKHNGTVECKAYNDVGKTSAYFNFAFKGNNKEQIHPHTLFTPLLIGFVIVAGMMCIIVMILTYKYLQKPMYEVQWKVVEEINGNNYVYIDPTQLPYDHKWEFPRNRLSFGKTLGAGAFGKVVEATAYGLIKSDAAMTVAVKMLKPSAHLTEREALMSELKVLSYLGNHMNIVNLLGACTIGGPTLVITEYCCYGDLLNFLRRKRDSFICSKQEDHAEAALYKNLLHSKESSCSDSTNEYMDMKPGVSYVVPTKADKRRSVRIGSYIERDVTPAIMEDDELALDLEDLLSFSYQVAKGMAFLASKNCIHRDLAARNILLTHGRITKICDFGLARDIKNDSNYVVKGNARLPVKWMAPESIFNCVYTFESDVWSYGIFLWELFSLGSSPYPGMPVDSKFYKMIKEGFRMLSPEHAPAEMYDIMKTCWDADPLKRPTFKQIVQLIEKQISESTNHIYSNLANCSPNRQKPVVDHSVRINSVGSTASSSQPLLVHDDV

In the case of `Cc1ccc(NC(=O)c2ccc(CN3CCN(C)CC3)cc2)cc1Nc1nccc(-c2cccnc2)n1` [Imatinib, reference compound], the “PDGFRβ phosphorylation in healthy rats” value [1] is reported as “potent inhibition”, the “circulating IL-10” value [2] is reported as “did not significantly alter” and the “circulating plasma TNF-α” value [2] is reported as “did not significantly alter”. The “lung mRNA and protein levels of MCP-1” value [2] was “did not modulate”, the “lung BMPR2” value [2] was “no significant effect” and the “effect on NT-proBNP” value ([2]; imatinib 15.0 mg·kg−1 once daily oral, day 49) was “no significant effect”. For the same compound, the “potency less than seralutinib” value ([3]; human PASMC and HLF proliferation assays) was 13–20 fold and the “pulmonary hypertension in rat MCT model” value [4] was “reversed pulmonary hypertension”.

In the case of `COc1ccc(-c2cncc(N[C@@H](C)c3cccc(NC(=O)c4cncc(C)c4)c3)n2)cc1OC` [Seralutinib, N-[3-[(1S)-1-[[6-(3,4-dimethoxyphenyl)pyrazin-2-yl]amino]ethyl]phenyl]-5-methylpyridine-3-carboxamide], the IC50 [5] is reported as 7.8 nM, the MCP-1 secretion [6] is reported as “reduced MCP-1 secretion in a dose-dependent manner” and the IC50 [7] is reported as 14.4 nM. The “more potent than imatinib, pCSF1R” value ([7]; M-CSF-induced phosphorylation of CSF1R in human primary differentiated macrophages) was 34 fold, the “decrease of NT-proBNP versus vehicle control” value ([2]; 12.8 mg·kg−1 twice daily inhaled, day 49) was 55% and the “small pulmonary artery muscularisation” value ([2]; compared to both the vehicle and imatinib-treated groups) was “decrease”. For the same compound, the “SMAD1/5 phosphorylation in lung” value ([2]; day 49) was “increase”, the “circulating PDGF-BB” value ([2]; day 49) was “trend towards decreased” and the “circulating IL-10” value [2] was “increased”. For the same compound, the “circulating plasma TNF-α” value [2] was “decreased”, the “lung mRNA and protein levels of MCP-1” value [2] was “decreased” and the “effect on stroke volume index and cardiac index compared to imatinib” value ([2]; echocardiography, day 49) was “significantly greater effect”. The “lung BMPR2” value [2] was “significantly increased”, the “increase in lung BMPR2 protein expression” value [8] was 2-to-2.5 fold and the “RVSP end of study” value ([9]; 2.5 mg·kg−1 twice daily inhaled) was 49.6±3.1 mmHg. The “reduction of PASP relative to vehicle” value ([9]; 2.5 mg·kg−1 twice daily inhaled, end of 2-week treatment, telemetry) was 43%, the “RVSP end of study” value ([9]; 4.6 mg·kg−1 twice daily inhaled) was 34.7±2.2 mmHg and the “lung phospho-PDGFRβ IHC” value [9, 13] was “reduced intensity”. For the same compound, the “number of grade 2 lesions (small pulmonary artery occlusion)” value [9, 13] was “significant decrease”, the “small pulmonary artery lumen-to-media area” value [9, 13] was “increased” and the “inhibition of c-KIT Y719 phosphorylation in lung” value [10] was 43%. For the same compound, the “reduction in RVSP compared to vehicle” value [11, 14] was 50%, the “reduction of right ventricular hypertrophy compared to vehicle” value [11, 14] was 49% and the “PASP lower compared to vehicle” value ([11]; 2.5 mg·kg−1 twice daily inhaled, day 9) was 34%. The “PASP lower compared to vehicle” value ([11]; 2.5 mg·kg−1 twice daily inhaled, day 10) was 37%, the “PASP lower compared to vehicle” value ([11]; 2.5 mg·kg−1 twice daily inhaled, day 11) was 41% and the lumen-to-media area ([11]; 2.5 mg·kg−1 twice daily, vs controls) was “increased”. The “grade 1 and 2 lesions” value [11, 15] was “fewer”, the perivascular fibrosis [11, 15] was “qualitative decrease” and the airway resistance ([11]; vs vehicle) was “similar”. The minute ventilation ([11]; vs vehicle) was “similar”, the respiratory rate ([11]; vs vehicle) was “decreased” and the tidal volume ([11]; vs vehicle) was “significantly improved”. For the same compound, the Kp [12] was 30 and the “greater potency at inhibiting proliferation compared to imatinib” value ([3]; human PASMCs and HLFs) was 13- to 20 fold.
